# Measurements as given in patent US20030229451A1, “Methods and systems for analyzing complex biological systems” (priority 2001, published 2003).
# Columns and labels:
# [1] = tested on: Saccharomyces cerevisiae wild type strain BY4743; assay: AF1 gene expression analysis of yeast cells treated with antifungal drugs; format: cell-based; conditions: for # Transcripts perturbed: 2x MIC, two hours; for # Pathways Affected by at Least One Gene: p < 0.05
# Procedure: Saccharomyces cerevisiae wild type strain BY4743 was purchased from American Type Culture Center (ATCC, Manassas, Va.). The yeast strain was grown in YPD or SD media. H. […] The cultures started from fresh single colonies were grown in 1.0 ml YPD overnight at 30° C. […] The OD600 was adjusted to 1.0 with YPD media, then 2.0 ml of each was inoculated into three 250 ml flasks, each containing 50 ml of SD media. […] The cells were kept growing for another two hours, then collected by centrifugation at 4000 rpm for 5 minutes at 4° C. Pellets were washed once with ice-cold water, then were lyophilized overnight at 4° C. […] Tubes were vortexed for 30 seconds, then incubated for 10 minutes at room temperature (RT). […] Tubes were incubated for 10 minutes at RT. Samples were centrifuged for 20 minutes as before. Pellets were washed with 400 μl 70% ethanol and centrifuged for 10 minutes as before. The pellet was then dissolved in 100 μl nuclease-free water. RNA quality was determined using the Bioanalyzer 2100 and the RNA 6000 assay (Agilent Technologies, Palo Alto, Calif.) according to manufacturer's instructions. RNA concentrations were determined spectrophotometrically by measuring the absorption at, 260 nm in an Ultrospec 2000 (Pharmacia Biotech, Piscataway, N.J.). […] Labeled cRNAs were evaluated using the RNA 6000 assay on the Agilent Bioanalyzer 2100. Labeled cRNA concentrations were determined spectrophotometrically by measuring the absorption at 260 nm in an Ultrospec 2000 (Pharmacia Biotech, Piscataway, N.J.). […] Each pair of samples to be hybridized were independently labeled and hybridized utilizing a fluor reversal for a total of two hybridizations per sample pair. The microarrays were scanned simultaneously in the Cy3 and Cy5 channels with Agilent's 48-slide, Dual Laser DNA Microarray Scanner (Agilent Technologies, Palo Alto, Calif.) at 10 μm resolution using default settings. Image Analysis Software (Version A.4.0.45, Agilent Technologies, Palo Alto, Calif.) was used for image analysis. Each feature was determined from an array's associated pattern file and a detection algorithm. Intensity values for each feature were determined after subtracting background derived from an average of negative control features. Features with unusual pixel intensity statistics (e.g., high non-uniformity, saturation in either channel, and the like) were excluded from downstream analyses. Data was loaded into the Rosetta RESOLVER database (Rosetta Inpharmatics Inc., Kirkland, Wash.) for storage and analysis. Data was evaluated after combining results from fluor reversal replicate hybridizations. The annotation of yeast ORFs was obtained from Proteome BIOKNOWLEDGE Library (Incyte Genomics, Palo Alto, Calif.). In AF1, two different technologies were utilized: gene expression analysis (for examination of mRNA expression) and metabolite analysis. […] As noted previously, existing metabolic databases may be helpful in practicing the methods and systems of the present invention, but many databases include limitations that make their use in data analysis and pathway mapping less than straightforward. […] This caveat to KEGG makes it difficult to pinpoint the correct pathway when attempting to link a gene to a specific pathway.
# [2] = tested on: Saccharomyces cerevisiae wild type strain BY4743; assay: AF1 combined gene expression and metabolite mapping to reactions and pathways (KEGG); format: cell-based
# Excerpt: The pathway score indicates how meaningful the mapping is, or how likely it is to be correctly indicative of the pathway involved in the perturbation under examination. The method provides a pathway score based on perturbation levels of genes and/or compounds and the information content of each gene and/or compound in the pathway, i.e., a pathway score indicates the extent to which other pathways are mapped to a gene/compound. For example, imagine that two genes are perturbed in a particular experiment. One gene maps to only one pathway, giving a high degree of probability that the perturbed pathway is the one identified in the mapping. The second gene maps to three pathways. In the later example, there is only one-third the probability that the pathway identified in the mapping is the one perturbed. The present invention provides a method for calculating the pathway scores, so that more weight is given to a score of a gene or compound that maps to only one pathway than to a score of a gene or compound that maps to multiple pathways. […] Where n=the total number of genes in the pathway; ipath—count=the number of pathways containing a gene; and j=the number of genes in the pathway that are perturbed. Another factor to be considered when weighting a pathway score is the degree of perturbation. Degree of perturbation can be calculated, for example, based on a number of standard deviations from a norm, and included in an equation such as the one shown above, so that not only the number of pathways is taken into account, but also accounts for the amount of gene transcript or compound present as compared to a control. The data were then combined to determine the number of reactions showing an enzyme and at least one compound perturbed, and to determine the number of pathways having at least one enzyme and one perturbed compound perturbed. The results of the analysis are represented in Tables 16 and 17, and were difficult to interpret, illustrating that the ability to draw conclusions from compound mapping to pathways is limited when absent additional data.
Compound,# Transcripts perturbed ([1]; P < 0.05),# Transcripts perturbed ([1]; P < 0.1),# Pathways Affected by at Least One Gene [1],# Reactions Having an Enzyme and at Least One Compound Perturbed [2],Number Of Pathways Having at Least One Enzyme and One Compound Perturbed (# Reactions) [2]
CC[C@@H]([C@H](C)O)n1ncn(-c2ccc(N3CCN(c4ccc(OC[C@@H]5CO[C@@](Cn6cncn6)(c6ccc(F)cc6F)C5)cc4)CC3)cc2)c1=O [Posaconazole],690,925,69,0,3
C[C@@H]1[C@H](O)[C@@H](C)/C=C/C=C/C=C/C=C/C=C/C=C/C=C/[C@H](O[C@@H]2O[C@H](C)[C@@H](O)[C@H](N)[C@@H]2O)C[C@@H]2O[C@](O)(C[C@@H](O)C[C@@H](O)[C@H](O)CC[C@@H](O)C[C@@H](O)CC(=O)O[C@H]1C)C[C@H](O)[C@H]2C(=O)O [Amphoteracin B],4363,4652,97,54,37
OC(Cn1cncn1)(Cn1cncn1)c1ccc(F)cc1F [Fluconazole],1411,1719,79,2,15
